Where a name gives a salt, the structure may show the parent alone.
Key:
human cdk2/cyclin A = target: T1, human cdk2/cyclin A (Homo sapiens, UniProt P24941); experiment: Assay for inhibition of CDK2 (Scintillation Proximity Assay); format: biochemical; conditions: read-out: cdk2SPA IC50
T1 construct: made in house; host or cells: Sf9 (baculovirus)
Method: Using the following reagents, supplies, and method, the ability of compounds of the invention to assay for modulation of the in vitro kinase activity of human cdk2/cyclin A in a Scintillation Proximity Assay (SPA).
Activated cdk2/cyclin A enzyme complex is purified from Sf9 cells and stored at −80° C. in 200 μL aliquots. Human cdk2/cyclin A protein is expressed, activated, and purified from baculovirus infected sf9 cells as described previously. (J. Mol. Biol., 230:1317-1319 (1993)).
The substrate is a biotinylated peptide substrate (Debtide), which is a peptide biotin-X-[…] dissolved in dH2O at a concentration of 5 mg/mL and stored at −80° C. in 100 μL aliquots.
The Peptide/ATP mixture is prepared by mixing 9.979 mL dH2O with 0.00125 mL of cold 10 mM ATP, 0.010 mL of 5 mg/mL Debtide, and 0.010 mL of 10 μCi/mL γ^33P ATP.
A 2.5× kinase buffer is prepared by mixing 8.85 mL of dH2O with 0.625 mL of 1M Tris pH 7.4, 0.25 mL of 1M MgCl2, 0.25 mL of 10% NP40, and 0.025 mL of 1M DTT. Ten milliliters of kinase buffer mix is sufficient for about 4.5 assay plates.
Prepare solutions of inhibitors at 5× the desired final concentration in 5% DMSO. Add 10 μL to each well. For negative controls, add 10 μL 5% DMSO.
Dilute 5 μL of cdk2/cyclin A solution into 2.1 mL 2× kinase buffer (per plate) and add 20 μL enzyme per well. This can be added using a hand pipette or by using the Titertek Multidrop. […] For each freeze/thaw cycle, double the amount of enzyme used in the assay. Also, the enzyme should be thawed quickly (e.g., in the palm of one's hand) and be kept on ice prior to use in the assay. Add 10 μL of 0.5 M EDTA to the negative control wells.
To start kinase reaction, add 20 μL of peptide/ATP mixture using either a hand pipette or the Titertek Multidrop. Let sit on benchtop behind shield for one hour. No shaking is necessary and is not recommended when using Flexiplates (plates are not easy to add/remove from shaker).
Add 200 μL stop solution per well using either the Titertek Multidrop or hand pipette. Let stand at least 10 minutes. Spin plate approximately 2300 rpm for 3-5 minutes. Count plate on Trilux reader.

EGFR = target: T2, EGFR (Homo sapiens, UniProt P00533); experiment: Assay for modulation of EGFR activity (ELISA); format: biochemical; conditions: for IC50: read-out: bio EGFR IC50
T2 construct: A431 […] cell lysate is stored at −80° C; host or cells: A431 cell lysate
Method: Using the following reagents, supplies, and method, the ability of compounds of the invention to modulate the in vitro activity of EGFR can be readily determined in an ELISA.
A431 […] cell lysate is stored at −80° C.
ATP/MnCl2 phosphorylation mix is prepared by adding 300 μL of 1.0 mM ATP and […] of 1M MnCl2 to 9.2 mL of dH2O and mixing. Ten mL of phosphorylation mix is enough for about 6 assay plates. Note that the mixture should be made fresh and kept on ice immediately before use, and that although the preferred ATP is fresh from powder stock, any remaining stock solution of ATP may be frozen at −20° C. in small aliquots to be used at a later time.
Coat Corning 96 well ELISA plates with 0.5 μg per well with SUMO1 in a volume of 100 μL PBS overnight, at 4° C. Remove unbound SUMO1 from wells by inverting plate to remove liquid. Wash 1× with distilled H2O by filling wells. Pat the plate on a paper towel to remove excess liquid.
Add 150 μL of Blocking Buffer to each well. Incubate for 30 minutes at room temperature, with shaking. Wash plate 3× with deionized water, then once with TBST. Pat plate on a paper towel to remove excess liquid and bubbles.
Dilute lysate in PBS (7 μg lysate/[…]) and add 100 μL of diluted lysate to each well. Shake at room temperature for 60 minutes. Wash 1× with distilled H2O by filling wells. Pat the plate on a paper towel to remove excess liquid.
Add 120 μL TBST to ELISA plate containing captured EGFR.
Dilute drugs/extracts 1:10 (unless specified otherwise) in TBST in 96-well polypropylene plates. (i.e., 10 μL compound+90 μL TBST). Add 13.5 μL diluted drugs/extracts to ELISA plate. […] Incubate for 30 minutes while shaking at room temperature.
Approximately 150 μL final volume in well with 3 uM ATP/5 mM MnCl2 final concentration in well. Incubate 5 minutes while shaking. Note that this is a timed event. It is critical that ATP/MnCl2 phosphorylates the receptor for only 5 minutes. It is best to add the ATP/MnCl2 with an automated 96 place pipettor workstation, then 5 minutes later stop the reaction with EDTA using the same workstation. Alternatively, addition can be performed using a 12 channel pipettor 1 row at a time, leaving 20 seconds between each row so that the reaction may be stopped with EDTA exactly 5 minutes later (this depends on the number of plates being phosphorylated in one batch). Shake between each addition.
[…] This is done using either the same work station as above, or the same timing method employed with the 12 channel pipettor. After the EDTA has been added, shake for 1 minute. Wash 4× with deionized water, twice with TBST.
Add 100 μL per well of anti-phosphotyrosine (1:3000 dilution in TBST). Incubate 30-45 minutes at room temperature, with shaking. Wash 1× with distilled H2O by filling wells. Pat the plate on a paper towel to remove excess liquid.
Incubate 30 minutes at room temperature, with shaking. Wash 1× with distilled H2O by filling wells. Pat the plate on a paper towel to remove excess liquid.
Add 100 μL of ABTS/H2O2 solution to each well. Incubate 5 to 10 minutes while shaking. Remove any bubbles. If necessary stop reaction with the addition of 100 μL of 0.2M HCl per well.
Read assay on Dynatech MR7000 ELISA reader.

T2 sequence (P00533 25-1210): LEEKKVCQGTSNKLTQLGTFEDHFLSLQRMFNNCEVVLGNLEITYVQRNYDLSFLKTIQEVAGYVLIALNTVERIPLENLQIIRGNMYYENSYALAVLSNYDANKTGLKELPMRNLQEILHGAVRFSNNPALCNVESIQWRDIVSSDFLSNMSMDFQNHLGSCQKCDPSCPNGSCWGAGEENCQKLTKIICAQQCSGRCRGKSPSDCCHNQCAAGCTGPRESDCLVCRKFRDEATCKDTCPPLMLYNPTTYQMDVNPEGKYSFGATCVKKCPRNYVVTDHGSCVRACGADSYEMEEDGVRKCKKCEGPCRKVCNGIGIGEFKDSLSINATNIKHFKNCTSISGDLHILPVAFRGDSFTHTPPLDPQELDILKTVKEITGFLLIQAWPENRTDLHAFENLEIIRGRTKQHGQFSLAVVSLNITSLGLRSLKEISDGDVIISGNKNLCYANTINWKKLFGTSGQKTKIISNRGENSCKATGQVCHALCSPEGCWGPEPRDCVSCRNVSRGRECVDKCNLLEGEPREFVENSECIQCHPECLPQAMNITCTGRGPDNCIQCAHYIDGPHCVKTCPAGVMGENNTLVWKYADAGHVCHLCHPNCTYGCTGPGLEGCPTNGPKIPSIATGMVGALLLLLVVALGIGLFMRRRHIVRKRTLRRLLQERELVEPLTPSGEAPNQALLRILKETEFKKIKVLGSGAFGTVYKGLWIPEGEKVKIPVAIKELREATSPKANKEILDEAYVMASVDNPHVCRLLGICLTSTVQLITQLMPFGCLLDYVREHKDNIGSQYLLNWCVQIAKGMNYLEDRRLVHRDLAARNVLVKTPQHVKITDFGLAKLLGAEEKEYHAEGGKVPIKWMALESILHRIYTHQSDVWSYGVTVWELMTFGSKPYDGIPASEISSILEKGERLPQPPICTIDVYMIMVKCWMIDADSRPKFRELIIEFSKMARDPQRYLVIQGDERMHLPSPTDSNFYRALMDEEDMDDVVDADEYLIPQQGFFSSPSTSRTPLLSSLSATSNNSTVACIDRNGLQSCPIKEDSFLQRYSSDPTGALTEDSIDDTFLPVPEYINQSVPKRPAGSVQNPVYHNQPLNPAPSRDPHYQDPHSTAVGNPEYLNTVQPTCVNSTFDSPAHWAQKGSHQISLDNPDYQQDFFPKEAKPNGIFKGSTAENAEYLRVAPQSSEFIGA

IC50 (human cdk2/cyclin A)	IC50 (EGFR)	inhibition of EGFR (in words) (EGFR; hydrochloride salt)	Structure (SMILES)
> 10000 nM	510 nM	–	Cc1cc(C(=O)NCCN2CCOCC2)[nH]c1C=C1C(=O)Nc2nccc(Nc3ccc(F)c(Cl)c3)c21 [Formula 3, 5-[4-(3-CHLORO-4-FLUORO-PHENYLAMINO)-2-OXO-1,2-DIHYDRO-PYRROLO[2,3-B]PYRIDIN-3-YLIDENEMETHYL]-4-METHYL-1H-PYRROLE-2-CARBOXYLIC ACID (2-MORPHOLIN-4-YL-ETHYL)-AMIDE]
> 10000 nM	–	–	Cc1cc(C(=O)NCCN2CCOCC2)[nH]c1C=C1C(=O)Nc2ncnc(Nc3ccc(F)c(Cl)c3)c21 [Formula 4, 5-[4-(3-CHLORO-4-FLUORO-PHENYLAMINO)-6-OXO-6,7-DIHYDRO-PYRROLO[2,3-D]PYRIMIDIN-5-YLIDENEMETHYL]-4-METHYL-1H-PYRROLE-2-CARBOXYLIC ACID (2-MORPHOLIN-4-YL-ETHYL)-AMIDE HYDROCHLORIDE]
–	> 20000 nM	–	O=C1Nc2ncnc(N3CCCCC3)c2C1=Cc1ccc(C(=O)NCCN2CCOCC2)[nH]1 [Formula 5, 5-(6-OXO-4-PIPERIDIN-1-YL-6,7-DIHYDRO-PYRROLO[2,3-D]PYRIMIDIN-5-YLIDENEMETHYL)-1H-PYRROLE-2-CARBOXYLIC ACID (2-MORPHOLIN-4-YL-ETHYL)-AMIDE]
–	1 nM	inhibits EGFR at very low concentrations	Cc1cc(C(=O)NCCN2CCOCC2)[nH]c1C=C1C(=O)Nc2ncnc(Nc3ccc4c(ccn4Cc4ccccc4)c3)c21.Cl [Formula 6, 5-[4-(1-BENZYL-1H-INDOL-5-YLAMINO)-6-OXO-6,7-DIHYDRO-PYRROLO[2,3-D]PYRIMIDIN-5-YLIDENEMETHYL]-4-METHYL-1H-PYRROLE-2-CARBOXYLIC ACID (2-MORPHOLIN-4-YL-ETHYL)-AMIDE HYDROCHLORIDE]
–	160 nM	–	Cc1[nH]c(C=C2C(=O)Nc3ncnc(Nc4ccc(F)c(Cl)c4)c32)c(C)c1CCCN1CCOCC1 [Formula 7, 4-(3-CHLORO-4-FLUORO-PHENYLAMINO)-5-[3,5-DIMETHYL-4-(3-MORPHOLIN-4-YL-PROPYL)-1H-PYRROL-2-YLMETHYLENE]-5,7-DIHYDRO-PYRROLO[2,3-D]PYRIMIDIN-6-ONE HYDROCHLORIDE]
2620 nM	60 nM	–	Cc1nc[nH]c1C=C1C(=O)Nc2ncnc(Nc3ccc(F)c(Cl)c3)c21 [Formula 8]
–	40 nM	–	Cc1cc(C)c(C=C2C(=O)Nc3ncnc(Nc4ccc(F)c(Cl)c4)c32)[nH]1 [Formula 9]
–	> 20000 nM	–	Cc1cc(C(=O)NCCN2CCOCC2)[nH]c1C=C1C(=O)Nc2ncnc(N3CCN(C)CC3)c21 [Formula 10, 4-METHYL-5-[4-(4-METHYL-PIPERAZIN-1-YL)-6-OXO-6,7-DIHYDRO-PYRROLO[2,3-D]PYRIMIDIN-5-YLIDENEMETHYL]-1H-PYRROLE-2-CARBOXYLIC ACID (2-MORPHOLIN-4-YL-ETHYL)-AMIDE]
10 nM	> 20000 nM	–	Cc1nc[nH]c1C=C1C(=O)Nc2ncnc(N3CCN(C)CC3)c21 [Formula 11]
–	4 nM	–	O=C1Nc2ncnc(Nc3ccc4c(ccn4Cc4ccccc4)c3)c2C1=Cc1ccc(C(=O)NCCN2CCOCC2)[nH]1 [Formula 12, 5-[4-(1-BENZYL-1H-INDOL-5-YLAMINO)-6-OXO-6,7-DIHYDRO-PYRROLO[2,3-D]PYRIMIDIN-5-YLIDENEMETHYL]-1H-PYRROLE-2-CARBOXYLIC ACID (2-MORPHOLIN-4-YL-ETHYL)-AMIDE HYDROCHLORIDE]
–	19100 nM	–	O=C1Nc2ncnc(N3CCOCC3)c2C1=Cc1ccc(C(=O)NCCN2CCOCC2)[nH]1 [Formula 13, 5-(4-MORPHOLIN-4-YL-6-OXO-6,7-DIHYDRO-PYRROLO[2,3-D]PYRIMIDIN-5-YLIDENEMETHYL)-1H-PYRROLE-2-CARBOXYLIC ACID (2-MORPHOLIN-4-YL-ETHYL)-AMIDE]
40 nM	> 20000 nM	–	Cc1nc[nH]c1C=C1C(=O)Nc2ncnc(N3CCOCC3)c21 [Formula 14]
–	20 nM	–	O=C1Nc2ncnc(Nc3ccc(F)c(Cl)c3)c2C1=Cc1ccc(C(=O)NCCN2CCOCC2)[nH]1 [Formula 15, 5-[4-(3-CHLORO-4-FLUORO-PHENYLAMINO)-6-OXO-6,7-DIHYDRO-PYRROLO[2,3-D]PYRIMIDIN-5-YLIDENEMETHYL]-1H-PYRROLE-2-CARBOXYLIC ACID (2-MORPHOLIN-4-YL-ETHYL)-AMIDE]
–	100 nM	–	C#Cc1cccc(Nc2ncnc3c2C(=Cc2ccc(C(=O)NCCN4CCOCC4)[nH]2)C(=O)N3)c1 [Formula 16, 5-[4-(3-ETHYNYL-PHENYLAMINO)-6-OXO-6,7-DIHYDRO-PYRROLO[2,3-D]PYRIMIDIN-5-YLIDENEMETHYL]-1H-PYRROLE-2-CARBOXYLIC ACID (2-MORPHOLIN-4-YL-ETHYL)-AMIDE HYDROCHLORIDE]
–	20 nM	–	C#Cc1cccc(Nc2ncnc3c2C(=Cc2[nH]c(C(=O)NCCN4CCOCC4)cc2C)C(=O)N3)c1 [Formula 17, 5-[4-(3-ETHYNYL-PHENYLAMINO)-6-OXO-6,7-DIHYDRO-PYRROLO[2,3-D]PYRIMIDIN-5-YLIDENEMETHYL]-4-METHYL-1H-PYRROLE-2-CARBOXYLIC ACID (2-MORPHOLIN-4-YL-ETHYL)-AMIDE]
–	180 nM	–	C#Cc1cccc(Nc2ncnc3c2C(=Cc2[nH]c(C)c(CCCN4CCOCC4)c2C)C(=O)N3)c1 [Formula 18]
–	150 nM	–	CC(C)c1cc(CCC(=O)O)c(/C=C2\C(=O)Nc3ncnc(Nc4ccc(F)c(Cl)c4)c32)[nH]1 [Formula 27]
–	210 nM	–	Cc1c(C(=O)N2CCOCC2)c[nH]c1/C=C1\C(=O)Nc2ncnc(Nc3ccc(F)c(Cl)c3)c21 [Formula 31]
–	> 20000 nM	–	Cc1cc(C(=O)N2CCOCC2)[nH]c1/C=C1\C(=O)N(C)c2ncnc(Nc3ccc(F)c(Cl)c3)c21 [Formula 34]
–	17400 nM	–	Cc1cc(C(=O)N2CCN(C)CC2)[nH]c1/C=C1\C(=O)N(C)c2ncnc(Nc3ccc(F)c(Cl)c3)c21 [Formula 36]
–	240 nM	–	Cc1cc(C=C2C(=O)Nc3ncnc(Nc4ccc(F)c(Cl)c4)c32)[nH]c1C(=O)N1CCOCC1 [Formula 37]
